Patent publication US4767768A, “Nitro aliphatic compounds, process for preparation thereof and use thereof” (Fujisawa Pharmaceutical Co., Ltd., priority 1982, dated 1988)
Values after ≈ are worked out from the molar mass of the structure shown. Like-named read-outs stand apart in the source and are kept apart here.

Columns and labels:
blood pressure = assay: Hypotensive activity in anesthetized rat; format: in vivo, rat (Sprague-Dowley); details: intravenous, urethane-anesthetized rat
Experimental: A 8 weeks-old Sprague-Dowley strain rat was anesthetized with urethane (0.7 g/kg, i.p). Blood pressure was recorded from femoral artery using a transducer coupled to a Biophysiograph 180 system (made by Sanei Sokuki Co., Ltd.). The femoral vein was cannulated to permit intravenous injection of the test compound. The test compound was dissolved in saline and injected in a volume of 0.2 ml.

[1] = system: rabbit platelet aggregation; assay: Inhibition of rabbit platelet aggregation (turbidimetric, platelet rich plasma); format: cell-based, rabbit (male Japanese White); details: Oryctolagus cuniculus
Experimental: Inhibitory activity of the nitro aliphatic compounds of this invention against rabbit platelet aggregation was measured according to the method described below.
Blood was collected from the central ear arteries of male Japanese White rabbit (2.5 to 3.0 kg body weight). The blood was prevented from coagulation with 1 volume of 3.8% sodium citrate to 9 volumes of blood. Platelet rich plasma (PRP) was prepared by centrifugation of the blood at 1300 rpm for 10 min. at 10° C. The PRP was diluted with platelet poor plasma obtained by further centrifugation of the blood at 3000 rpm for 10 min. The platelet counts in the PRP used for aggregation studies were about 4.0×10^5 platelets/mm^3. Aggregometry was performed with platelet aggregating agents in a SIENCO dual sample aggregometer (DP-247E) at 37° C., using 0.3 ml combined volume of PRP and reagents in a cylindrical glass cuvette under constant stirring with a magnetic stirring bar. Platelet aggregation was measured turbidimetrically by recording changes in the light transmission of PRP during aggregation. Activities of inhibitors were expressed as IC50 values i.e. concentrations required to inhibit the platelet aggregation responses by 50%. Collagen was used in amounts (2 to 20 μg/ml for PRP) sufficient to induce a response that was 80 to 90% of the maximum obtainable. Arachidonic acid was used at a final concentration of 5 μM. Similarly a final concentration of adenosine di-phosphate (ADP), usually 1 to 5 μM was choosen to induce approximately 75% of the maximum aggregation. Thrombin was used at a final concentration of 0.3 U/ml.

[2] = Inducer: Thrombin (0.3 U/ml), Table 2, read-out: IC50, platelet aggregation

SMILES	IC50 [1, 2] [µg/mL]	also measured
CC/C(=C\C(=NO)C(N)=O)C(C)[N+](=O)[O-] (stereo not drawn) [Example 1, (E)-4-ethyl-2-hydroxyimino-5-nitro-3-hexenamide]	–	Hypotensive effect, Duration (blood pressure; 10 μg/kg): 1.5 min; Hypotensive effect, Maximal decrease (blood pressure; 10 μg/kg): 10 mm Hg; Hypotensive effect, Duration (blood pressure; 100 μg/kg): 4 min; Hypotensive effect, Maximal decrease (blood pressure; 100 μg/kg): 40 mm Hg; IC50 ([1]; inducer: ADP (usually 1 to 5 μM), read-out: IC50 value, platelet aggregation): 0.15 µg/mL (≈ 0.697 µM); IC50 ([1]; inducer: Arachidonic acid (5 μM), read-out: IC50 value, platelet aggregation): 0.75 µg/mL (≈ 3.48 µM); IC50 ([1]; inducer: Collagen (2 to 20 μg/ml), read-out: IC50 value, platelet aggregation): 0.07 µg/mL (≈ 0.325 µM); IC50 ([1]; inducer: Thrombin (0.3 U/ml), Table 1, read-out: IC50 value, platelet aggregation): 0.15 µg/mL (≈ 0.697 µM)
CCCCNC(=O)C(C=C(CC)C(C)[N+](=O)[O-])=NO (stereo not drawn) [Example 2, N-n-butyl-4-ethyl-2-hydroxyimino-5-nitro-3-hexenamide]	0.15 (≈ 0.553 µM)	–
CCC(=CC(=NO)C(=O)NC)C(C)[N+](=O)[O-] (stereo not drawn) [Example 3, N-Methyl-4-ethyl-2-hydroxyimino-5-nitro-3-hexenamide]	0.3 (≈ 1.31 µM)	–
CCC(=CC(=NO)C(=O)N1CCN(C=O)CC1)C(C)[N+](=O)[O-] (stereo not drawn) [Example 4, 1-Formyl-4-(4-ethyl-2-hydroxyimino-5-nitro-3-hexenoyl)piperazine]	0.3 (≈ 0.961 µM)	–
CCC(=CC(=NO)C(=O)NCC(=O)O)C(C)[N+](=O)[O-] (stereo not drawn) [Example 6, N-(4-Ethyl-2-hydroxyimino-5-nitro-3-hexenoyl)glycine]	0.15 (≈ 0.549 µM)	–
CCC(=CC(=NO)C(=O)N1CCCCC1)C(C)[N+](=O)[O-] (stereo not drawn) [Example 7, N-(4-Ethyl-2-hydroxyimino-5-nitro-3-hexenoyl)piperidine]	0.75 (≈ 2.65 µM)	–
CCC(=CC(=NO)C(=O)N[C@H](C(=O)O)[C@@H](C)O)C(C)[N+](=O)[O-] (stereo partly drawn) [Example 10, N-(4-Ethyl-2-hydroxyimino-5-nitro-3-hexenoyl)-L-threonine]	0.3 (≈ 0.945 µM)	–
CCC(=CC(=NO)C(=O)NCc1ccccc1)C(C)[N+](=O)[O-] (stereo not drawn) [Example 11, N-Benzyl-4-ethyl-2-hydroxyimino-5-nitro-3-hexenamide]	0.15 (≈ 0.491 µM)	–
CCC(=CC(=NO)C(N)=O)C(c1ccc(OC)cc1)[N+](=O)[O-] (stereo not drawn) [Example 14, 4-Ethyl-2-hydroxyimino-5-(4-methoxyphenyl)-5-nitro-3-pentenamide]	0.3 (≈ 0.976 µM)	–
CCC(=CC(=NO)C(=O)NCCCC(=O)O)C(C)[N+](=O)[O-] (stereo not drawn) [Example 15, N-[4-Ethyl-2-hydroxyimino-5-nitro-3-hexenoyl]-4-aminobutyric acid]	0.75 (≈ 2.49 µM)	–
CCC(=CC(C#N)=NO)C(C)[N+](=O)[O-] (stereo not drawn) [Example 17, 4-Ethyl-2-hydroxyimino-5-nitro-3-hexenenitrile]	1.5 (≈ 7.61 µM)	–
CCC(=CC(C=O)=NO)C(C)[N+](=O)[O-] (stereo not drawn) [Example 18, 4-Ethyl-2-hydroxyimino-5-nitro-3-hexenal]	3 (≈ 15 µM)	–
CCOC(=O)C(C=C(CC)C(C)[N+](=O)[O-])=NO (stereo not drawn) [Example 19, Ethyl 4-ethyl-2-hydroxyimino-5-nitro-3-hexenoate]	0.07 (≈ 0.287 µM)	–
CCC(=CC(=NO)C(=O)NCC(=O)OC)C(C)[N+](=O)[O-] (stereo not drawn) [Example 20, Methyl 2-[4-ethyl-2-hydroxyimino-5-nitro-3-hexenoylamino]acetate]	0.15 (≈ 0.522 µM)	–
CCC(=CC(C=NO)=NO)C(C)[N+](=O)[O-] (stereo not drawn) [Example 21, 4-ethyl-2-hydroxyimino-5-nitro-3-hexenaldehyde oxime]	0.15 (≈ 0.697 µM)	–
CCC(=CC(CO)=NO)C(C)[N+](=O)[O-] (stereo not drawn) [Example 22, 4-ethyl-2-hydroxyimino-5-nitro-3-hexen-1-ol]	0.75 (≈ 3.71 µM)	–
CCC(=CC(COC(C)=O)=NO)C(C)[N+](=O)[O-] (stereo not drawn) [Example 23, 1-Acetoxy-4-ethyl-2-hydroxyimino-5-nitro-3-hexene]	0.15 (≈ 0.614 µM)	–
CCC(CC(=NO)C(=O)NC(C)(C)C)C(C)[N+](=O)[O-] (stereo not drawn) [Example 24, N-t-butyl-4-ethyl-2-hydroxyimino-5-nitrohexanamide]	1.5 (≈ 5.49 µM)	–
CCC(CC(=NO)C(N)=O)C(C)[N+](=O)[O-] (stereo not drawn) [Example 25, 4-Ethyl-2-hydroxyimino-5-nitro-hexanamide]	6 (≈ 27.6 µM)	–
CCC(=CC=NO)C(C)[N+](=O)[O-] (stereo not drawn) [Example 28, 3-ethyl-4-nitro-2-pentenaloxime]	6 (≈ 34.8 µM)	–
